The source of these data is patent publication US12090147B2, “Combination therapy with 2-(4-chlorophenyl)-N-((2-(2,6-dioxopiperidin-3-yl)-1-oxoisoindolin-5-yl)methyl)-2,2-difluoroacetamide” (Celgene Corporation, priority 2019, dated 2024).

The IC50 is the concentration at which inhibition is half-maximal. Low values mean greater potency in that assay, high ones weaker potency in that assay.

The structures appear in SMILES notation.

The subject of series [1] is Normal Peripheral Blood Mononuclear Cells. The experiment in a line: Cytokine induction, electrochemiluminescence assay of culture supernatant. The note with it: PBMC. The format is cell-based, human. The procedure: Normal PBMCs were purchased from AllCells (Cat No. PB006F). Primary AML BMMC in were purchased from Conversant (SKU ID: BBM1000-E1110036458110215SH) or Fidelis Research (AML55, AML57, AML73, AML74, AML76, AML79, AML80, AML81, AML84, AML95). Bone marrow from health donor was purchased from StemCell Technologies (Cat No. 70001.2).
Normal PBMCs were cultured in RPMI-1640 (ATCC Cat No. 30-2001) containing 20% fetal bovine serum (Corning Cat No. 35-010-CV). Primary AML and bone marrows were cultured in Complete Medium Cytokines 1X: StemSpam™ Serum-Free Expansion Medium (StemCell Technologies Cat No. 09650) supplemented with 50 ng/mL Stem Cell Factor (Peprotech Cat No. 300-07), 50 ng/mL recombinant Human FLT3-Ligand (Peprotech Cat No. 300-19), 20 ng/mL recombinant human-interleukin-3 (Peprotech Cat No. 200-03), […] recombinant human-interleukin-6 (Peprotech Cat No. 200-06), 1 μM StemRegenin (StemCell Technologies Cat No. 72342), penicillin/streptomycin (Invitrogen Cat No. 15140122).
IL-1α (Meso Scale Disgnostics, Cat No. K151RBD), IL-1β (Meso Scale Disgnostics, Cat No. K151QPD), IL-1RA (Meso Scale Disgnostics, Cat No. K151WTD), IL-18 (Meso Scale Disgnostics, Cat No. K151VJK), TNFa (Meso Scale Disgnostics, Cat No. K151QWD), VEGF Meso Scale Disgnostics, Cat No. K151RHD) levels were measured by (Meso Scale Disgnostics assay kits following manufacturer's instructions. Measurements were made on a MESO™ SECTOR S 600 plate reader (Meso Scale Disgnostics).
(§1) Cell proliferation (CTG) and caspase 3/7 activation (IncuCyte) were analyzed using GraphPad Prism. Electrochemiluminescence data was analyzed using MSD Discovery Workbench platform.
The level of intracellular pro IL-1β and released IL-1β in eight AML cell lines and normal PBMC treated with a titration of Compound 1 over a 48 hour period was assessed. (see FIGS. 1A-1C, Table 2). Supernatant IL-1βb level was induced over 5 fold in 6 out of 8 AML cell lines and normal PBMC upon Compound 1 treatment compared to DMSO (FIGS. 1A, 1B, and 1C, Table 2).

Series [2] concerns isogenic MV4-11 Cas9 cell pair (GCN2). The experiment in a line: Isogenic cell pair, wildtype GCN2 vs GCN2 deleted. The format is cell-based, human. The text has this: ISR, especially via GCN2 pathway, is one of the key pathways contributed to GSPT1 mediated cell death. GCN2 knock down blocked ATF4 and CHOP induction by Compound 1, and suppressed caspase 3 and caspase 8 activation. GCN2 has been implicated in IL-1β production. GCN2 activation inhibit classical caspase 1 mediated inflammasome activation in intestinal cells and that GCN2 knock down in CD11c+ antigen presenting cells or intestinal epithelial cells leads to enhanced inflammasome activation and IL-1β production. (Ravindran et al. Nature. 2016, 531(7595):523-527). To understand if Compound 1 mediated IL-1β induction is downstream of GCN2 pathway, an isogenic MV4-11 Cas9 cell pair either expressing endogenous wildtype GCN2 or with the gene deleted was used. GCN2 knock down suppressed the induction of phosphor-eIF2a, ATF4, CHOP and cleaved caspase 8 by Compound 1 (FIG. 9A). […] These evidences pointed that pro-[…] up-regulation and secreted IL-1β induction are both downstream effects of GCN2 pathway activation, and distinct from the GCN2 mediated classical inflammasome pathway inhibition reported in gut cells (Ravindran et al. Nature. 2016, 531(7595):523-527).

The nature of a further series: Hygroscopicity. The format is physicochemical.
The subject of the next series is MV4-11. The experiment in a line: Cytokine induction, electrochemiluminescence assay of culture supernatant. Format: cell-based, human. The note with it: compounds at 1 μM, 72 hours.
The test system of the next series is ML-2. The series can be described thus: Cell viability (CELL TITER-GLO), Compound 1 IC50 / dose response. The format is cell-based. The note with it: Homo sapiens; ML-2 (monocytic, FAB M4). As to the method:
For CELL TITER-GLO® (CTG; Promega) and Incucyte assays, cells were seeded at 0.1 million per mL, 50 μL per well of Corning black 384-well plate and allowed set overnight. The next day, test compounds were dispensed using a Tecan D300e digital dispenser according to manufacturer's instruction.
Human AML cell lines, HL-60 (CCL-240), KG-1 (CCL-246), ML-2 (ACC-15), MOLM-13 (ACC-554), MV-4-11 (CRL-9591), NOMO-1 (ACC-542), TF-1 (CRL-2003), THP-1 (TIB-202), and U937 (CRL-1593) were obtained from American Type Culture Collection (ATCC; Manassas, VA) or Deutsche Sammlung von Mikroorganismen and Zellkulturen (DSMZ, Germany) cell banks. […]
AML cell lines and primary AML were treated in duplicate or triplicates with DMSO or test compounds in 384-well plates for 3 days. Cell viability was determined by CELL TITER-GLO® (CTG; Promega) assay kit according to manufacturer's instructions. Apoptosis was monitored using Caspase 3/7 Green reagent (Essen Biosciences Cat No. 4440). Caspase-3/7 activation levels were quantified using the IncuCyte™ ZOOM basic analyzer.
as §1
(In general: ATP-based viability assays read luminescence as a measure of living cells.)

The conditions of series [3]: pH 5.

In the case of `O=C1CCC(N2Cc3cc(CNC(=O)C(F)(F)c4ccc(Cl)cc4)ccc3C2=O)C(=O)N1` (stereo not drawn) [Compound 1, 2-(4-chlorophenyl)-N-((2-(2,6-dioxopiperidin-3-yl)-1-oxoisoindolin-5-yl)methyl)-2,2-difluoroacetamide], in series [1], the IL-1β induction turned out to be 1.88 and the IL-18 induction is 0.90. In addition, the “Induction of phosphor-eIF2a, ATF4, CHOP and cleaved caspase 8” value in series [2] (GCN2 knock down) is “suppressed”. Also, the “Intracellular and supernatant IL-1β induction” value in series [2] (GCN2 knock out cells compared to parental cells) is reported as “markedly suppressed”. In addition, in series [2] (absence of GCN2), the Pro-IL-1β upregulation result is recorded as “abolished”. Also, the Hygroscopicity entry in the series “Hygroscopicity” is “Not hygroscopic”. For the same molecule, the “Secreted IL-1β levels, panel of mechanistic compounds” value in the series with MV4-11 is reported as “produced markedly more secreted IL-1β compared to all other compounds tested”. Moreover, the IC50 with ML-2 is 15.1 nM. Moreover, in series [3], the “Solution Stability” value is “DS is not stable in solution at pH of 5.0 or above”.
